The record followed here is the supplement of paper PMC11424490.

Molecules are shown by their SMILES.

The subject of experiment [1] is NCI-H2122. As to the kind of experiment: combination cScore with sotorasib (Bliss gap around IC50) (%PoC); higher = stronger additive effect. How it is done:
(§1)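 Combination screen of 179 inhibitors with the KRAS G12C inhibitor sotorasib (AMG510) in dose matrices, CellTiter-Glo readout in NCI-H2122 (72 h), SW837 (144 h) and NCI-H358 cells. The cScore is the mean Bliss-independence gap (expected minus observed viability, in %PoC) over a 3x3 field around the IC50s of both drugs. Positive means additive, and >~10 is stated as clear additive.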

Experiment [2] has as its system SW837. Described as above. How it is done:
as §1

Experiment [3] relates to NCI-H2122. As to the kind of experiment: combination cScore with adagrasib (Bliss gap around IC50) (%PoC); higher = stronger additive effect. The essentials:
(§2)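 NCI-H2122, NCI-H358 and SW837 cells were plated in 384-well plates at 500 or 800 cells per well, treated with concentration matrices after 24 h, and grown for 72 h (SW837 for 144 h). Luminescence from CellTiter-Glo was expressed as percent of control relative to vehicle wells and fitted with four-parameter curves. The score is the mean Bliss-independence gap, expected minus measured viability, across a field around both monotherapy IC50 values, or across the top concentrations where no IC50 was reached.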

The subject of experiment [4] is SW837. Described as above. The essentials:
as §2

Consider `Cc1ncc(NC(=O)c2cccc(C(F)(F)F)c2)cc1-c1cnc(OC2CCOCC2)c(N2CCOCC2)c1` [RAF-709] + C=CC(=O)N1CCN(c2nc(=O)n(-c3c(C)ccnc3C(C)C)c3nc(-c4c(O)cccc4F)c(F)cc23)[C@@H](C)C1 [sotorasib], for which the “combination cScore with sotorasib” value in the experiment on NCI-H2122 [1] is 3.48; with SW837 [2], 5.38.
For `CN(C)c1ccccc1CN1CCCN(Cc2ccccc2N(C)C)C1c1ccncc1` [GANT61] + C=CC(=O)N1CCN(c2nc(=O)n(-c3c(C)ccnc3C(C)C)c3nc(-c4c(O)cccc4F)c(F)cc23)[C@@H](C)C1 [sotorasib], the “combination cScore with sotorasib” value was -3.17 with NCI-H2122 [1] and -1.32 with SW837 [2].
On the same counts, the results for `CCN(CC)CCNC(=O)c1c(C)[nH]c(/C=C2\C(=O)Nc3ccc(F)cc32)c1C` [Sunitinib] + C=CC(=O)N1CCN(c2nc(=O)n(-c3c(C)ccnc3C(C)C)c3nc(-c4c(O)cccc4F)c(F)cc23)[C@@H](C)C1 [sotorasib] are 10.9 and 23.
On the same counts, the results for `CC[C@]1(O)C[C@@H]2CN(CCc3c([nH]c4ccccc34)[C@@](C(=O)OC)(c3cc4c(cc3OC)N(C)[C@H]3[C@@](O)(C(=O)OC)[C@H](OC(C)=O)[C@]5(CC)C=CCN6CC[C@]43[C@@H]65)C2)C1` [Vinblastine] + C=CC(=O)N1CCN(c2nc(=O)n(-c3c(C)ccnc3C(C)C)c3nc(-c4c(O)cccc4F)c(F)cc23)[C@@H](C)C1 [sotorasib] are 6.11 and 8.44.
On the same counts, the results for `N.N.[Cl][Pt][Cl]` [Cisplatin] + C=CC(=O)N1CCN(c2nc(=O)n(-c3c(C)ccnc3C(C)C)c3nc(-c4c(O)cccc4F)c(F)cc23)[C@@H](C)C1 [sotorasib] are 4.22 and -10.2.
`O=c1cc(N2CCOCC2)oc2c(-c3cccc4c3sc3ccccc34)cccc12` [NU-7441] + C=CC(=O)N1CCN(c2nc(=O)n(-c3c(C)ccnc3C(C)C)c3nc(-c4c(O)cccc4F)c(F)cc23)[C@@H](C)C1 [sotorasib]: the “combination cScore with sotorasib” value was determined as 15 in the experiment on NCI-H2122 [1] and 9.27 with SW837 [2].
As for `CNCc1ccc(-c2cc(-c3nc(-c4ccc(S(=O)(=O)C(C)C)cc4)cnc3N)on2)cc1` [VE-822/VX-970] + C=CC(=O)N1CCN(c2nc(=O)n(-c3c(C)ccnc3C(C)C)c3nc(-c4c(O)cccc4F)c(F)cc23)[C@@H](C)C1 [sotorasib], the “combination cScore with sotorasib” value with NCI-H2122 [1] is 2.89; with SW837 [2], -0.45.
On the same counts, the results for `CCN1CCN(c2ccc(Nc3cc(N(C)C(=O)Nc4c(Cl)c(OC)cc(OC)c4Cl)ncn3)cc2)CC1` [BGJ398] + C=CC(=O)N1CCN(c2nc(=O)n(-c3c(C)ccnc3C(C)C)c3nc(-c4c(O)cccc4F)c(F)cc23)[C@@H](C)C1 [sotorasib] are 2.52 and 12.1.
On the same counts, the results for `CCCC(CCC)C(=O)O` [Valproic acid] + C=CC(=O)N1CCN(c2nc(=O)n(-c3c(C)ccnc3C(C)C)c3nc(-c4c(O)cccc4F)c(F)cc23)[C@@H](C)C1 [sotorasib] are -1.96 and -2.1.
In the case of `O=C(O)C(=O)O.[NH-][C@@H]1CCCC[C@H]1[NH-].[Pt+2]` [Oxaliplatin] + C=C(F)C(=O)N1CCN(c2nc(OC[C@@H]3CCCN3C)nc3c2CCN(c2cccc4cccc(Cl)c24)C3)C[C@@H]1CC#N [adagrasib], the results for the “combination cScore with adagrasib” value in the experiment on NCI-H2122 [3] and with SW837 [4] were 5.21 and -1.13, respectively.
On the same counts, the results for `CCc1cccc(CC)c1NC(=O)c1nn(C)c2c1CCc1cnc(Nc3ccc(C(=O)NC4CCN(C)CC4)cc3OC(F)(F)F)nc1-2` [NMS-P715] + C=C(F)C(=O)N1CCN(c2nc(OC[C@@H]3CCCN3C)nc3c2CCN(c2cccc4cccc(Cl)c24)C3)C[C@@H]1CC#N [adagrasib] are -2.37 and 2.41.
On the same counts, the results for `CCCC(CCC)C(=O)O` [Valproic acid] + C=C(F)C(=O)N1CCN(c2nc(OC[C@@H]3CCCN3C)nc3c2CCN(c2cccc4cccc(Cl)c24)C3)C[C@@H]1CC#N [adagrasib] are -2.93 and 2.04.
On the same counts, the results for `NC(=O)c1cnc(N[C@@H]2CCCC[C@@H]2N)nc1Nc1cccc(-n2nccn2)c1` + C=C(F)C(=O)N1CCN(c2nc(OC[C@@H]3CCCN3C)nc3c2CCN(c2cccc4cccc(Cl)c24)C3)C[C@@H]1CC#N [adagrasib] are 11.8 and 3.74.
`CC(C)(C(=O)NCC(F)(F)C(F)(F)F)C(=O)N[C@@H]1C(=O)Nc2ccccc2-c2ccccc21` + C=C(F)C(=O)N1CCN(c2nc(OC[C@@H]3CCCN3C)nc3c2CCN(c2cccc4cccc(Cl)c24)C3)C[C@@H]1CC#N [adagrasib]: the “combination cScore with adagrasib” value in the experiment on NCI-H2122 [3] worked out at 6.57; in the experiment on SW837 [4] it was 9.86.
On the same counts, the results for `Cc1cc(Nc2nc(N[C@@H](C)c3ncc(F)cn3)ncc2Cl)[nH]n1` [AZD-1480] + C=C(F)C(=O)N1CCN(c2nc(OC[C@@H]3CCCN3C)nc3c2CCN(c2cccc4cccc(Cl)c24)C3)C[C@@H]1CC#N [adagrasib] are 3.87 and 1.14.
On the same counts, the results for `CC(C)C[C@@H](C(=O)N[C@H](C(=O)OC1CCCC1)c1ccccc1)[C@H](O)C(=O)NO` [Tosedostat] + C=C(F)C(=O)N1CCN(c2nc(OC[C@@H]3CCCN3C)nc3c2CCN(c2cccc4cccc(Cl)c24)C3)C[C@@H]1CC#N [adagrasib] are 1.4 and 19.8.
Turning to `O=C(CCCCCCC(=O)Nc1ccccc1)NO` [Vorinostat] + C=C(F)C(=O)N1CCN(c2nc(OC[C@@H]3CCCN3C)nc3c2CCN(c2cccc4cccc(Cl)c24)C3)C[C@@H]1CC#N [adagrasib], the results for the “combination cScore with adagrasib” value in the experiment on NCI-H2122 [3] and in the experiment with SW837 [4] were 1.67 and 14.9, respectively.
On the same counts, the results for `CO[C@H]1/C=C/C[C@H](C)[C@@H](C)S(=O)(=O)NC(=O)c2ccc3c(c2)N(C[C@@H]2CC[C@H]21)C[C@@]1(CCCc2cc(Cl)ccc21)CO3` [AMG176] + C=C(F)C(=O)N1CCN(c2nc(OC[C@@H]3CCCN3C)nc3c2CCN(c2cccc4cccc(Cl)c24)C3)C[C@@H]1CC#N [adagrasib] are 5.81 and -0.8.
On the same counts, the results for `CC[C@H](C)C(=O)O[C@H]1C[C@@H](C)C=C2C=C[C@H](C)[C@H](CC[C@@H]3C[C@@H](O)CC(=O)O3)[C@H]21` [Lovastatin] + C=C(F)C(=O)N1CCN(c2nc(OC[C@@H]3CCCN3C)nc3c2CCN(c2cccc4cccc(Cl)c24)C3)C[C@@H]1CC#N [adagrasib] are -4.64 and 1.03.
As to `COc1cc(OC)c(/C=C/S(=O)(=O)Cc2ccc(OC)c(NCC(=O)O)c2)c(OC)c1` [Rigosertib] + C=C(F)C(=O)N1CCN(c2nc(OC[C@@H]3CCCN3C)nc3c2CCN(c2cccc4cccc(Cl)c24)C3)C[C@@H]1CC#N [adagrasib], the “combination cScore with adagrasib” value with NCI-H2122 [3] was 1.67; with SW837 [4], 7.78.
On the same counts, the results for `CC(C)(C)c1ccc(S(=O)(=O)NCc2ccc(C(=O)Nc3cccnc3)cc2)cc1` [STF-31] + C=C(F)C(=O)N1CCN(c2nc(OC[C@@H]3CCCN3C)nc3c2CCN(c2cccc4cccc(Cl)c24)C3)C[C@@H]1CC#N [adagrasib] are -2.08 and 10.7.
For `Nc1nc2[nH]cc(CCc3ccc(C(=O)N[C@@H](CCC(=O)O)C(=O)O)cc3)c2c(=O)[nH]1` [Pemetrexed] + C=C(F)C(=O)N1CCN(c2nc(OC[C@@H]3CCCN3C)nc3c2CCN(c2cccc4cccc(Cl)c24)C3)C[C@@H]1CC#N [adagrasib], the “combination cScore with adagrasib” value in the experiment on NCI-H2122 [3] was determined as 2.77; in the experiment on SW837 [4], 5.08.
Turning to `CNCc1ccc(-c2cc(-c3nc(-c4ccc(S(=O)(=O)C(C)C)cc4)cnc3N)on2)cc1` [VE-822/VX-970] + C=C(F)C(=O)N1CCN(c2nc(OC[C@@H]3CCCN3C)nc3c2CCN(c2cccc4cccc(Cl)c24)C3)C[C@@H]1CC#N [adagrasib], the figures for the “combination cScore with adagrasib” value in the experiment with NCI-H2122 [3] and with SW837 [4] were 3.08 and -9.66, respectively.
On the same counts, the results for `CNC(=O)c1ccc(N2C(=S)N(c3ccc(C#N)c(C(F)(F)F)c3)C(=O)C2(C)C)cc1F` [Enzalutamide] + C=C(F)C(=O)N1CCN(c2nc(OC[C@@H]3CCCN3C)nc3c2CCN(c2cccc4cccc(Cl)c24)C3)C[C@@H]1CC#N [adagrasib] are 4.58 and 7.72.
On the same counts, the results for `On1ncc2cc(CCc3nn[nH]n3)ccc21` + C=C(F)C(=O)N1CCN(c2nc(OC[C@@H]3CCCN3C)nc3c2CCN(c2cccc4cccc(Cl)c24)C3)C[C@@H]1CC#N [adagrasib] are 7.37 and -2.04.
On the same counts, the results for `CO[C@H]1CC[C@H](n2c([C@@H]3CCCC(=O)N3c3ccc(F)c(F)c3)nc3cc(-c4c(C)noc4C)ccc32)CC1` [CCS1477] + C=C(F)C(=O)N1CCN(c2nc(OC[C@@H]3CCCN3C)nc3c2CCN(c2cccc4cccc(Cl)c24)C3)C[C@@H]1CC#N [adagrasib] are -1.66 and 7.35.
